According to the supplement of paper PMC8960247:
Where a name gives a salt, the structure may show the parent alone. ± gives the standard error.

Key:
621-103 (TSC2-rescued) = experiment: relative viability vs DMSO; higher = less cytotoxic; conditions: serum: 10% FBS, 72 h
621-102 (TSC2-deficient) = experiment: as above; conditions: serum: 10% FBS, 72 h
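Further: immortalized renal angiomyolipoma cells stably carrying empty vector or TSC2, dosed in 384-well plates in DMEM, viability normalized to vehicle-treated wells within each plate.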

| SMILES | relative viability (621-103 (TSC2-rescued); 0.0001 µM) | relative viability (621-103 (TSC2-rescued); 0.001 µM) | relative viability (621-103 (TSC2-rescued); 0.01 µM) | relative viability (621-103 (TSC2-rescued); 0.1 µM) | relative viability (621-103 (TSC2-rescued); 1 µM) | relative viability (621-103 (TSC2-rescued); 10 µM) | relative viability (621-102 (TSC2-deficient); 0.0001 µM) | relative viability (621-102 (TSC2-deficient); 0.001 µM) | relative viability (621-102 (TSC2-deficient); 0.01 µM) | relative viability (621-102 (TSC2-deficient); 0.1 µM) | relative viability (621-102 (TSC2-deficient); 1 µM) | relative viability (621-102 (TSC2-deficient); 10 µM) |
| --- | --- | --- | --- | --- | --- | --- | --- | --- | --- | --- | --- | --- |
| CCCCCCOC(=O)NC(=N)c1ccc(NCc2nc3cc(C(=O)N(CCC(=O)OCC)c4ccccn4)ccc3n2C)cc1 [BIBR-1048] | 82.2 ± 13% | 80.5 ± 6.2% | 88.7 ± 4.1% | 92.9 ± 8.5% | 72.9 ± 5.4% | 69.4 ± 1.5% | 78.58 ± 0.35% | 83.8 ± 4.3% | 90.2 ± 3% | 96.8 ± 4.4% | 107 ± 6.2% | 87.6 ± 3% |
| CN(C)C/C=C/C(=O)Nc1cc2c(Nc3ccc(F)c(Cl)c3)ncnc2cc1O[C@H]1CCOC1 [BIBW2992 )Tovok)] | 98.7 ± 5.2% | 106.2 ± 1% | 103 ± 6% | 100.3 ± 0.78% | 78.3 ± 2.9% | 7.915 ± 0.042% | 115 ± 3% | 108.3 ± 0.98% | 110 ± 1.6% | 108 ± 3.2% | 91.85 ± 0.61% | 13.8 ± 1.6% |
| COc1c(C)cnc(Cn2cnc3c(Cl)nc(N)nc32)c1C [BIIB021] | 108.8 ± 0.79% | 103 ± 1.5% | 104.1 ± 0.83% | 75 ± 2.9% | 5.92 ± 0.87% | 4.56 ± 0.052% | 107 ± 1.3% | 120 ± 2.2% | 117 ± 4.1% | 79 ± 2.7% | 33.3 ± 1.2% | 21.1 ± 0.83% |
| Cc1ccc(-n2nc(C(C)(C)C)cc2NC(=O)Nc2ccc(OCCN3CCOCC3)c3ccccc23)cc1 [BIRB 796] | 98 ± 1.9% | 98.8 ± 1.3% | 97.2 ± 1% | 98.7 ± 1.7% | 94.18 ± 0.14% | 95.5 ± 1.8% | 104 ± 3.1% | 107 ± 3.4% | 98.8 ± 4.4% | 103.8 ± 0.27% | 103 ± 4.7% | 104 ± 1.4% |
| Nc1cc(C(F)(F)F)c(-c2cc(N3CCOCC3)nc(N3CCOCC3)n2)cn1 [BKM120 (NVP-BKM120)] | 102 ± 2.4% | 112 ± 2.3% | 109.19 ± 0.024% | 104 ± 5% | 58.5 ± 2.1% | 21 ± 0.97% | 97 ± 2% | 102 ± 3.6% | 95.9 ± 2.2% | 92.9 ± 2.6% | 71.9 ± 3.6% | 20.01 ± 0.19% |
| COc1ccccc1N1CCN(CCN2C(=O)CC3(CCCC3)CC2=O)CC1 [BMY 7378] | 96.7 ± 4.4% | 96.58 ± 0.1% | 99.07 ± 0.31% | 98.2 ± 1.8% | 105 ± 1.9% | 105 ± 1.3% | 104.1 ± 0.41% | 110 ± 3.7% | 100 ± 3.8% | 104.4 ± 0.88% | 105 ± 0.26% | 95.3 ± 2.3% |
| CC(C)c1cnn2c(NCc3ccccc3)cc(NCCCCCCN)nc12 [BS-181] | 101 ± 2.2% | 101.1 ± 1% | 99.7 ± 1.7% | 88.3 ± 1.2% | 100 ± 1.4% | 55.7 ± 5.2% | 112 ± 2.3% | 107 ± 3.7% | 106.4 ± 0.99% | 94.74 ± 0.88% | 116 ± 2.2% | 81.2 ± 7.1% |
| NC(=O)c1ccc(I)c([N+](=O)[O-])c1 [BSI-201] | 108 ± 2.5% | 103 ± 1.1% | 105.9 ± 0.65% | 102 ± 1.9% | 100.5 ± 0.3% | 102.3 ± 0.13% | 136 ± 2.7% | 130 ± 0.89% | 126.6 ± 0.33% | 116.12 ± 0.099% | 113.7 ± 0.28% | 110 ± 3.1% |
| O=C(O)[C@H]1O[C@@H](Oc2cc3oc(-c4ccccc4)cc(=O)c3c(O)c2O)[C@H](O)[C@@H](O)[C@@H]1O [Baicalin] | 113.5 ± 0.92% | 106 ± 1.2% | 118.8 ± 1.1% | 106 ± 4.6% | 105 ± 1.2% | 107.9 ± 0.63% | 97.45 ± 0.88% | 108 ± 3.8% | 106 ± 2.6% | 106 ± 1.6% | 110 ± 1.3% | 98.5 ± 1.3% |
| CCOC(=O)[C@H](CCc1ccccc1)N[C@H]1CCc2ccccc2N(CC(=O)O)C1=O [Benazepril HCl] | 82.5 ± 11% | 89.7 ± 11% | 89.6 ± 6.1% | 98.8 ± 6.3% | 95.2 ± 4.9% | 89.9 ± 6.7% | 68 ± 2.9% | 82 ± 2.6% | 83 ± 5.2% | 81.1 ± 7.4% | 74.6 ± 9.9% | 69.8 ± 4.9% |
| NC(CO)C(=O)NNCc1ccc(O)c(O)c1O (stereo not drawn) [Benserazide HCl] | 108.8 ± 0.38% | 104 ± 2.7% | 110 ± 2.1% | 109.5 ± 0.88% | 114 ± 2.6% | 105 ± 3.1% | 98.1 ± 5.3% | 93.8 ± 2.6% | 103 ± 3.5% | 107 ± 1.3% | 106 ± 2.3% | 101 ± 1.4% |
| CC(C[N+](C)(C)C)OC(N)=O (stereo not drawn) [Bethanechol chloride] | 96.28 ± 0.78% | 102 ± 1.9% | 105 ± 1.4% | 105 ± 0.93% | 103.7 ± 0.9% | 101.6 ± 0.12% | 103 ± 3.5% | 105 ± 3.1% | 104 ± 2.9% | 103.4 ± 0.49% | 100 ± 1.8% | 101 ± 3% |
| CC(O)(CS(=O)(=O)c1ccc(F)cc1)C(=O)Nc1ccc(C#N)c(C(F)(F)F)c1 (stereo not drawn) [Bicalutamide (Casodex)] | 105.2 ± 0.55% | 102 ± 1.1% | 101.3 ± 0.41% | 102 ± 1.6% | 102.5 ± 0.88% | 102 ± 1.1% | 126 ± 1.3% | 119 ± 3.4% | 112 ± 1.2% | 102 ± 2.8% | 110.6 ± 0.79% | 112 ± 1.8% |
| COc1cc(Nc2c(C#N)cnc3cc(OCCCN4CCN(C)CC4)c(OC)cc23)c(Cl)cc1Cl [Bosutinib (SKI-606)] | 85.39 ± 0.5% | 93.6 ± 3% | 94.5 ± 6% | 90.2 ± 6.4% | 69.5 ± 4% | 1.86 ± 0.19% | 94.6 ± 3.7% | 109 ± 3.2% | 92.7 ± 6.8% | 103 ± 7.9% | 64.3 ± 7.2% | 3.18 ± 0.88% |
| CCCCN1CCCCC1C(=O)Nc1c(C)cccc1C (stereo not drawn) [Bupivacaine HCl (marcain)] | 89.4 ± 2.3% | 102 ± 4.2% | 98.8 ± 1.7% | 104 ± 4.7% | 94.37 ± 0.47% | 98.415 ± 0.003% | 97.4 ± 2.2% | 104 ± 4.4% | 93.47 ± 0.53% | 93.5 ± 1.1% | 94.1 ± 1.3% | 100 ± 2.3% |
| CC[C@H](Nc1ncnc2[nH]cnc12)c1nc2cccc(F)c2c(=O)n1-c1ccccc1 [CAL-101] | 116 ± 3.1% | 109 ± 3.1% | 114 ± 1.2% | 104 ± 3.4% | 109 ± 2% | 92.7 ± 4.7% | 104.38 ± 0.033% | 117.5 ± 0.72% | 111 ± 5.8% | 106 ± 3% | 104.1 ± 0.72% | 92.41 ± 0.24% |
| O=C(O)c1ccc2c(c1)nc(Nc1cccc(Cl)c1)c1ccncc12 [CX-4945] | 109 ± 5.8% | 106.3 ± 0.77% | 111 ± 7.9% | 106 ± 3% | 104 ± 3.2% | 72.54 ± 0.24% | 95 ± 3.3% | 93.1 ± 1.6% | 102 ± 2.2% | 103.8 ± 0.2% | 101 ± 2.9% | 80.4 ± 0.94% |
| Cc1nc(N)sc1-c1ccnc(Nc2ccc(N3CCOCC3)cc2)n1 [CYC116] | 91.6 ± 5.4% | 94.51 ± 0.42% | 101.6 ± 0.83% | 95.1 ± 4.3% | 72 ± 3.4% | 28.3 ± 0.44% | 90.7 ± 2.7% | 102 ± 4.6% | 113.07 ± 0.029% | 100.4 ± 0.47% | 93.08 ± 0.77% | 50.55 ± 0.13% |
| CC[C@@]1(O)C(=O)OCc2c1cc1n(c2=O)Cc2cc3ccccc3nc2-1 [Camptothecine] | 100.6 ± 0.37% | 100.7 ± 0.47% | 96.3 ± 4.5% | 44.6 ± 2.1% | 10.3 ± 0.36% | 17.79 ± 0.099% | 104.3 ± 0.41% | 106 ± 1.9% | 101 ± 2.4% | 57.8 ± 2.9% | 12 ± 0.68% | 19.5 ± 1.7% |
